{"source": "patent US5256700A", "about": "(priority 1990, dated 1993)", "key": {"[1]": {"tested_on": "simple herpes of type 2 (HSV2)", "assay": "Antiviral activity in vitro, test 1 (titer after 2 h incubation), HSV2", "assay_type": "cell-based, HSV2 (cultured on VERO cell line)", "settings": "control 10^4"}, "Chemical stability": {"assay": "Chemical stability", "assay_type": "physicochemical"}, "[2]": {"tested_on": "simple herpes of type 1 (HSV1)", "assay": "Antiviral activity in vitro, test 1 (titer after 2 h incubation), HSV1", "assay_type": "cell-based, HSV1 (cultured on VERO cell line)", "settings": "control 10^5"}, "DNA": {"tested_on": "DNA", "assay": "Degradation of DNA caused by free radicals"}, "[3]": {"tested_on": "simple herpes of type 2 (HSV2)", "assay": "Antiviral activity in vitro, test 2 (viral production after 4 days), HSV2", "assay_type": "cell-based, HSV2 (cultured on VERO cell line)", "settings": "for Number of viral particles/0.025 ml supernatant, Test 2 HSV2: control 10^7"}, "[4]": {"settings": "Brieskorn and Domling 1969; cited from earlier work"}, "[5]": {"tested_on": "simple herpes of type 1 (HSV1)", "assay": "Antiviral activity in vitro, test 2 (viral production after 4 days), HSV1", "assay_type": "cell-based, HSV1 (cultured on VERO cell line)", "settings": "for Number of viral particles/0.025 ml supernatant, Test 2 HSV1: control 2 × 10^8"}, "[6]": {"tested_on": "certain microorganisms responsible for dental caries and bad breath", "settings": "CA 97, 84835q; cited from earlier work"}}, "data": [{"smiles": "CC(C)c1cc2c(c(O)c1O)[C@@]1(C(=O)O)CCCC(C)(C)[C@@H]1CC2", "note": "[Carnosic acid]", "values": [{"measurement": "Number of viral particles/0.025 ml supernatant, Test 1 HSV2", "setting": "[1]; 0.62 μg/ml", "value": "10 viral particles/0.025 ml supernatant"}, {"measurement": "Number of viral particles/0.025 ml supernatant, Test 1 HSV2", "setting": "[1]; 1.25 μg/ml", "value": "10 viral particles/0.025 ml supernatant"}, {"measurement": "Number of viral particles/0.025 ml supernatant, Test 1 HSV2", "setting": "[1]; 2.5 μg/ml", "value": "10 viral particles/0.025 ml supernatant"}, {"measurement": "Number of viral particles/0.025 ml supernatant, Test 1 HSV2", "setting": "[1]; 5 μg/ml", "value": "10 viral particles/0.025 ml supernatant"}, {"measurement": "sensitivity to oxidation", "setting": "Chemical stability; like any catechol-type molecule", "value": "highly sensitive to oxidation"}, {"measurement": "stability, purified and crystallized form", "setting": "Chemical stability; purified and crystallized form", "value": "stable"}, {"measurement": "Number of viral particles/0.025 ml supernatant, Test 1 HSV1", "setting": "[2]; 0.62 μg/ml", "value": "10^4 viral particles/0.025 ml supernatant"}, {"measurement": "Number of viral particles/0.025 ml supernatant, Test 1 HSV1", "setting": "[2]; 1.25 μg/ml", "value": "10^3 viral particles/0.025 ml supernatant"}, {"measurement": "Number of viral particles/0.025 ml supernatant, Test 1 HSV1", "setting": "[2]; 2.5 μg/ml", "value": "10 viral particles/0.025 ml supernatant"}, {"measurement": "Number of viral particles/0.025 ml supernatant, Test 1 HSV1", "setting": "[2]; 5 μg/ml", "value": "10 viral particles/0.025 ml supernatant"}, {"measurement": "effect on the degradation of DNA caused by the free radicals", "setting": "DNA", "value": "inhibiting effect"}, {"measurement": "Number of viral particles/0.025 ml supernatant, Test 2 HSV2", "setting": "[3]; 0.62 μg/ml", "value": "8 × 10^5 viral particles/0.025 ml supernatant"}, {"measurement": "Number of viral particles/0.025 ml supernatant, Test 2 HSV2", "setting": "[3]; 1.25 μg/ml", "value": "10^5 viral particles/0.025 ml supernatant"}, {"measurement": "Number of viral particles/0.025 ml supernatant, Test 2 HSV2", "setting": "[3]; 2.5 μg/ml", "value": "2 × 10^2 viral particles/0.025 ml supernatant"}, {"measurement": "Number of viral particles/0.025 ml supernatant, Test 2 HSV2", "setting": "[3]; 5 μg/ml", "value": "< 10 viral particles/0.025 ml supernatant"}, {"measurement": "production of HSV2", "setting": "[3]; test 2", "value": "greatly affected"}, {"measurement": "antioxidant activity", "setting": "[4]", "value": "powerful antioxidant"}, {"measurement": "Number of viral particles/0.025 ml supernatant, Test 2 HSV1", "setting": "[5]; 0.62 μg/ml", "value": "6 × 10^6 viral particles/0.025 ml supernatant"}, {"measurement": "Number of viral particles/0.025 ml supernatant, Test 2 HSV1", "setting": "[5]; 1.25 μg/ml", "value": "2.5 × 10^6 viral particles/0.025 ml supernatant"}, {"measurement": "Number of viral particles/0.025 ml supernatant, Test 2 HSV1", "setting": "[5]; 2.5 μg/ml", "value": "10^5 viral particles/0.025 ml supernatant"}, {"measurement": "Number of viral particles/0.025 ml supernatant, Test 2 HSV1", "setting": "[5]; 5 μg/ml", "value": "10^2 viral particles/0.025 ml supernatant"}, {"measurement": "production of HSV1", "setting": "[5]; test 2", "value": "greatly affected"}, {"measurement": "cell toxicity", "setting": "VERO cell line", "value": "absence of cell toxicity"}, {"measurement": "antibiotic activity against microorganisms responsible for dental caries and bad breath", "setting": "[6]", "value": "against certain microorganisms responsible for dental caries and bad breath"}]}]}
